For one series, the system named is PBMC. Put plainly: Concentration required to inhibit LPS-induced TNFalpha production in human peripheral blood mononuclear cells; n=3. It counts as functional, cell-based.
A short description of series [1]: Oral bioavailability of compound after administration of a solution dose in PEG400. It counts as ADME, organism-based. As to conditions: eutheria, in vivo.
Series [2] in a line: Half-life of compound evaluated in mice after intravenous administration. As to conditions: mouse, in vivo. It counts as ADME, organism-based.
A short description of series [3]: Clearance of compound in mice after intravenous administration. It counts as ADME, organism-based. As to conditions: mouse, in vivo.
Series [4] can be described thus: In vitro permeability of compound into Caco-2 cells. It is filed as ADME, cell-based. The following applies: human, read-out: Permeability.
Series [5] can be described thus: Metabolic rate as a measure of compound stability in rat liver microsomes. It is filed as ADME, Microsome.
Series [6] can be described thus: Metabolic rate as a measure of compound stability in human liver microsomes. It is filed as ADME, Microsome. On the technique in general: Microsomes from liver hold many membrane-bound enzymes, among them those of drug oxidation.
The test system of a further series is PHA-Ly. Kind of series: In vitro cytotoxic effect of compound (30 uM) on PHA blast cells compared to control after 24 hours of treatment. It counts as functional, Homo sapiens.
The target of another series is MAP kinase p38 (Homo sapiens, UniProt O15264+Q15759+Q16539+P53778). Put plainly: Binding affinity for human p38 MAP kinase expressed in Escherichia coli using [gamma-33P]ATP; n=4.
The target in series [7] is Serine/threonine-protein kinase AKT (Homo sapiens, UniProt P31751+Q9Y243+P31749). Put plainly: Inhibitory concentration against Akt. It is filed as protein assay.
Series [8] concerns the target Mitogen-activated protein kinase 1 (Homo sapiens, UniProt P28482). Kind of series: Inhibitory concentration against ERK.
Series [9] deals with Fibroblast growth factor receptor (Homo sapiens, UniProt P22607+P11362+P22455+P21802). Kind of series: Inhibitory concentration against FGF receptor. It is filed as protein assay.
Series [10] concerns the target Inhibitor of NF-kappa-B kinase (IKK) (Homo sapiens, UniProt O14920+O15111+Q9Y6K9). Put plainly: Inhibitory concentration against IKK. It is filed as protein-complex assay.
Series [11] deals with Tyrosine-protein kinase ITK/TSK (Homo sapiens, UniProt Q08881). Put plainly: Inhibitory concentration against Itk.
For series [12], the target named is Vascular endothelial growth factor receptor 2 (Homo sapiens, UniProt P35968). Kind of series: Inhibitory concentration against KDR.
Series [13] addresses Tyrosine-protein kinase Lck (Homo sapiens, UniProt P06239). Kind of series: Inhibitory concentration against Lck.
For series [14], the target named is Dual specificity mitogen-activated protein kinase kinase 1 (Homo sapiens, UniProt Q02750). Kind of series: Inhibitory concentration against MEK.
Dual specificity mitogen-activated protein kinase kinase 1, sequence (Q02750 whole entry): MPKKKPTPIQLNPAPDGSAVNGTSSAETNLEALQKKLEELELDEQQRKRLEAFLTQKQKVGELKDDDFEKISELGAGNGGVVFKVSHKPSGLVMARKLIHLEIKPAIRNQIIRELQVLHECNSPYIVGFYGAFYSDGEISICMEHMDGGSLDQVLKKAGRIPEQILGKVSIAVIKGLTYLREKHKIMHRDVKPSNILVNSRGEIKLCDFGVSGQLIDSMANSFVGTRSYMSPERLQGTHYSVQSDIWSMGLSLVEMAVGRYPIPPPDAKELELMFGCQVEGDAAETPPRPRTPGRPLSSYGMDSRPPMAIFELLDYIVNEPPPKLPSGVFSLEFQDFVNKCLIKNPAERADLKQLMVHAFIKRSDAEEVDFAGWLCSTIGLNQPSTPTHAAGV
Series [15] has as its target Mitogen-activated protein kinase 11 (Homo sapiens, UniProt Q15759). Kind of series: Inhibitory concentration against p38 beta.
Series [16] concerns the target Glycogen synthase kinase-3 (Homo sapiens, UniProt P49840+P49841). Kind of series: Inhibitory concentration against GSK-3. It counts as protein assay.
For series [17], the target named is Receptor tyrosine-protein kinase erbB-2 (Homo sapiens, UniProt P04626). Put plainly: Inhibitory concentration against HER2 (ErbB2).
Receptor tyrosine-protein kinase erbB-2, sequence (P04626 whole entry): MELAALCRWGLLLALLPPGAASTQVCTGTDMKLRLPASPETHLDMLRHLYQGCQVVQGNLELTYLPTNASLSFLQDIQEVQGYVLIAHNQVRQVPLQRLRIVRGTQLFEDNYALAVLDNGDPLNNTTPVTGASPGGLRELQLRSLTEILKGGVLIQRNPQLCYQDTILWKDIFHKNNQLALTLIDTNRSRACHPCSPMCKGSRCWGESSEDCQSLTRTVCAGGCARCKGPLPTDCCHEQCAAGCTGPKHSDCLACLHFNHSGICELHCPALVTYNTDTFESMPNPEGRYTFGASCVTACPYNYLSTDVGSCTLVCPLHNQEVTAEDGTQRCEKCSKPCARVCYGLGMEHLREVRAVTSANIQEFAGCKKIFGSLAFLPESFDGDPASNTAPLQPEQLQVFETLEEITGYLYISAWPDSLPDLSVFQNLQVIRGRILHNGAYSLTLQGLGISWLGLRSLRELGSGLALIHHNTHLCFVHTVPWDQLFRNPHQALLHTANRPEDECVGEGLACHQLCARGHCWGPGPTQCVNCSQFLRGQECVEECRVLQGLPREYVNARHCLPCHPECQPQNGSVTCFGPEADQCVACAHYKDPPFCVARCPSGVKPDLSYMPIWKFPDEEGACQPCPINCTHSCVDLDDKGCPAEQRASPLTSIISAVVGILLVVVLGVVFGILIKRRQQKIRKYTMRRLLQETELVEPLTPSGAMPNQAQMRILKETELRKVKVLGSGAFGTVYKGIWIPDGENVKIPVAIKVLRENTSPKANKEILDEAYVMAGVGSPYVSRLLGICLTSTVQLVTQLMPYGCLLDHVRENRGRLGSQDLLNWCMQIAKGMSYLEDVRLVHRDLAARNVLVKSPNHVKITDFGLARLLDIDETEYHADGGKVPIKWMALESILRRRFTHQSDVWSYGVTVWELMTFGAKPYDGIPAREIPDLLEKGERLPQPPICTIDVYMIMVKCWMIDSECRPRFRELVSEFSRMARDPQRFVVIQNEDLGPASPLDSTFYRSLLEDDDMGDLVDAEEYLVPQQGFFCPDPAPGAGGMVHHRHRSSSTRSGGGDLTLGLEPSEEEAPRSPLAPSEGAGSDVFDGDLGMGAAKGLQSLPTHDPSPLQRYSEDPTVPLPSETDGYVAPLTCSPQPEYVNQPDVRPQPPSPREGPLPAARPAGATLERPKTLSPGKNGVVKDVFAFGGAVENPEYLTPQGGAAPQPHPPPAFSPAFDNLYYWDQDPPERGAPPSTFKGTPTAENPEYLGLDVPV
In series [18] the target is Tyrosine-protein kinase JAK3 (Homo sapiens, UniProt P52333). Kind of series: Inhibitory concentration against JAK3.
The target in series [19] is Cyclin-dependent kinase 2 (Homo sapiens, UniProt P24941). Kind of series: Inhibitory concentration against CDK2.
The target in series [20] is Insulin-like growth factor 1 receptor (Homo sapiens, UniProt P08069). Put plainly: Inhibitory concentration against IGF-IR.
Insulin-like growth factor 1 receptor, sequence (P08069 31-736 limits assumed): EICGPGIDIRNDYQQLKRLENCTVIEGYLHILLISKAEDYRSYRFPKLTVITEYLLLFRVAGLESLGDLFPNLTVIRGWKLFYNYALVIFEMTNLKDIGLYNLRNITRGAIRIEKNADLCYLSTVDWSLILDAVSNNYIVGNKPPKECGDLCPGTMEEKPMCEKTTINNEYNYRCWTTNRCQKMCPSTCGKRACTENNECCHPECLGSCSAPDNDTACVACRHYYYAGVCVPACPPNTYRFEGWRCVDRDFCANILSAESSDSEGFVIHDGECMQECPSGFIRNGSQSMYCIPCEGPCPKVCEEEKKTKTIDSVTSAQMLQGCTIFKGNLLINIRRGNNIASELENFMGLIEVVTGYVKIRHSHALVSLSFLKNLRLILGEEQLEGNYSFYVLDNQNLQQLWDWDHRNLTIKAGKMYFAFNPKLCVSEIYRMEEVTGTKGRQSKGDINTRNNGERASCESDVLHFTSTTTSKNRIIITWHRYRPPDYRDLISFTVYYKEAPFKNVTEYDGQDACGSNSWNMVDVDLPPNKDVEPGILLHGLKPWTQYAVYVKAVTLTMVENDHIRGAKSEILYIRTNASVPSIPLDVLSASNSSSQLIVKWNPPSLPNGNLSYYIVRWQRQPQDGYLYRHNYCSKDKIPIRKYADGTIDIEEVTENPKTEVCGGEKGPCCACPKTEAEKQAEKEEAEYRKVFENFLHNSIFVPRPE
Insulin-like growth factor 1 receptor, sequence (P08069 741-1367 limits assumed): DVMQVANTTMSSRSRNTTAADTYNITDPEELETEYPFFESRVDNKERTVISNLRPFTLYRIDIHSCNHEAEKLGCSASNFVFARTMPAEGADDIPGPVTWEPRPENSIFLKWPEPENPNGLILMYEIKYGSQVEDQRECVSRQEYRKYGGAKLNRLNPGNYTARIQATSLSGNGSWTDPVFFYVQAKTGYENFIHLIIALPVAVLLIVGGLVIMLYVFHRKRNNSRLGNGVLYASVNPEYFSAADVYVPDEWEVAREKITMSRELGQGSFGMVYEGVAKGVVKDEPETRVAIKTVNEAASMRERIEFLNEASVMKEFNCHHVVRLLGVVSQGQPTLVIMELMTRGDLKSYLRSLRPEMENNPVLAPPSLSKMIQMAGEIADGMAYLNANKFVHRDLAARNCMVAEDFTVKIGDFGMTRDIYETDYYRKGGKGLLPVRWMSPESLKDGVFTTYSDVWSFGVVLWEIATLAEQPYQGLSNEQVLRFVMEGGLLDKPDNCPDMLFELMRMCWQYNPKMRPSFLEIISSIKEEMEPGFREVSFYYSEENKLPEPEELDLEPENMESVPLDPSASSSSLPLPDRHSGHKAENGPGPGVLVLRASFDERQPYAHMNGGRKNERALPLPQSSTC
Series [21] has as its target Mitogen-activated protein kinase 14 (Homo sapiens, UniProt Q16539). Put plainly: Inhibitory concentration against p38 alpha.
The target of series [22] is Mitogen-activated protein kinase 13 (Homo sapiens, UniProt O15264). Put plainly: Inhibitory concentration against p38 delta.
Mitogen-activated protein kinase 13, sequence (O15264 whole entry): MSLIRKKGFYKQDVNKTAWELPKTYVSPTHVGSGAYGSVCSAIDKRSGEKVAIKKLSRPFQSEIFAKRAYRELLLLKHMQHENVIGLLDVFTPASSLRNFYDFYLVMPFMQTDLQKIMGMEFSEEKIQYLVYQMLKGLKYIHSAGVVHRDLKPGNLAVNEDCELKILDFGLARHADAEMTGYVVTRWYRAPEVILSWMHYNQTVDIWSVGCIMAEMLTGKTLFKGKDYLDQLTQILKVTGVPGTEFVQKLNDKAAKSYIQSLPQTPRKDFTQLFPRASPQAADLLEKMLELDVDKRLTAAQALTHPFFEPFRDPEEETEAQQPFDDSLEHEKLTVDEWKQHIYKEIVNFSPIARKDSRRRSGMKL
Series [23] concerns the target Mitogen-activated protein kinase 12 (Homo sapiens, UniProt P53778). Put plainly: Inhibitory concentration against p38 gamma.
The target of series [24] is MAP kinase-activated protein kinase 2 (Homo sapiens, UniProt P49137). Kind of series: Inhibitory concentration against MK2.
Series [25] addresses Hepatocyte growth factor receptor (Homo sapiens, UniProt P08581). Kind of series: Inhibitory concentration against Met.
The target in series [26] is cAMP-dependent protein kinase (PKA) (Homo sapiens, UniProt P22694+P17612+P22612). Kind of series: Inhibitory concentration against PKA. It is filed as protein assay.
For another series, the target named is Protein kinase C (PKC). Put plainly: Inhibitory concentration against PKC. It is filed as protein assay.
Series [27] concerns the target RAF proto-oncogene serine/threonine-protein kinase (Homo sapiens, UniProt P04049). Kind of series: Inhibitory concentration against Raf.
For series [28], the target named is Tyrosine-protein kinase SYK (Homo sapiens, UniProt P43405). Put plainly: Inhibitory concentration against Syk.

Data on 16 compounds can be found in ChEMBL document CHEMBL1141103, “5-Cyanopyrimidine derivatives as a novel class of potent, selective, and orally active inhibitors of p38alpha MAP kinase” (J Med Chem, 2005).

Mitogen-activated protein kinase 11, sequence (Q15759 whole entry): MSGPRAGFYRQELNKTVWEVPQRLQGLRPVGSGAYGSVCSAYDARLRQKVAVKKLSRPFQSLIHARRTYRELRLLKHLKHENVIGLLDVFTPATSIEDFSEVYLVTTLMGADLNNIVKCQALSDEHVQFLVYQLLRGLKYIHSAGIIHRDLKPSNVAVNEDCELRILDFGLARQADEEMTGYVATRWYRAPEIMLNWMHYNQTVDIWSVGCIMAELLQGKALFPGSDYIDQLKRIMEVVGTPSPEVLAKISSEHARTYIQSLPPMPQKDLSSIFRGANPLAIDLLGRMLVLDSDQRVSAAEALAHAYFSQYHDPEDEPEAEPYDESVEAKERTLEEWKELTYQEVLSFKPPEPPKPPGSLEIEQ
Mitogen-activated protein kinase 14, sequence (Q16539 whole entry): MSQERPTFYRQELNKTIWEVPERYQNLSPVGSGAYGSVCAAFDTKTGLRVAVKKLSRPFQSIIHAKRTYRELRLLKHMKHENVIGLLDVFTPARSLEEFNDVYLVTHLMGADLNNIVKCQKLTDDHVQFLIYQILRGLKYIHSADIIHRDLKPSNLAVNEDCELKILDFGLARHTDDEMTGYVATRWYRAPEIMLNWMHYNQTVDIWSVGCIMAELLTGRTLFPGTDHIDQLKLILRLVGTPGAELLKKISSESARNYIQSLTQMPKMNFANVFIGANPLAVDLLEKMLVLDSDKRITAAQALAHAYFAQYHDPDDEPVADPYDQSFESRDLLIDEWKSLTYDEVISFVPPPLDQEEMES
Mitogen-activated protein kinase 12, sequence (P53778 whole entry): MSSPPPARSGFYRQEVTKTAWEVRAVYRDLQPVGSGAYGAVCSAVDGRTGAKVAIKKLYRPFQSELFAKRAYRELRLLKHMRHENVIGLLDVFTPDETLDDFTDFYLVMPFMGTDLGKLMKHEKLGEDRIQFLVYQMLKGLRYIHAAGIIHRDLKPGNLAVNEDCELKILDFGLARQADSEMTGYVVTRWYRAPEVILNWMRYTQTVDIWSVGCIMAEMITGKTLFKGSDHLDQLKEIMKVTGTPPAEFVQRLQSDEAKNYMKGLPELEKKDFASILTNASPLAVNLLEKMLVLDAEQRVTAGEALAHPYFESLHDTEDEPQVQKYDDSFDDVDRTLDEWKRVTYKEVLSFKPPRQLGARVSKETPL
Tyrosine-protein kinase Lck, sequence (P06239 whole entry): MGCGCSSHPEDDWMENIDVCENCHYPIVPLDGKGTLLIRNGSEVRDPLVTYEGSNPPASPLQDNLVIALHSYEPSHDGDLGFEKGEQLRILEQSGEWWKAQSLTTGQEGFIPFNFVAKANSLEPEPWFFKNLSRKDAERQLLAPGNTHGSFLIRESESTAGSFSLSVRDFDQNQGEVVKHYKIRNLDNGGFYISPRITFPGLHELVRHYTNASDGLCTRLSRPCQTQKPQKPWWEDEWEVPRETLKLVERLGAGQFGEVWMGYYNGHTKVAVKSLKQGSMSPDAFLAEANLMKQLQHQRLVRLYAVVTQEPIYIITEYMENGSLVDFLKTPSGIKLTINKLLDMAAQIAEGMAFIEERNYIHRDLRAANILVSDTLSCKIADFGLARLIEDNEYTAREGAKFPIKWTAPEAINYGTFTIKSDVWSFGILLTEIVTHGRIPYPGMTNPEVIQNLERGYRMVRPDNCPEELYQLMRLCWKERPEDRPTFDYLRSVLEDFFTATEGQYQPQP

`CNc1nc(Nc2cc(C(=O)NOC)ccc2C)c(C#N)c(N(C)CC(C)(C)C)n1` gave a 50% inhibitory concentration (IC50) in the series with PBMC of 64 µM.

Turning to `CONC(=O)c1ccc(C)c(Nc2ncnc(N(C)CC(C)(C)C)c2C#N)c1`, in the series with PBMC, the concentration for half-maximal inhibition (IC50) came to 42 µM.

`CCn1nccc1NC(=O)c1ccc(C)c(Nc2ncnc(NC(C)C)c2C#N)c1`: in the series with PBMC, the IC50 amounted to 130 µM.

As to `CONC(=O)c1ccc(C)c(Nc2nc(N3CCCN(C)CC3)nc(N(C)CC(C)(C)C)c2C#N)c1`, the IC50 in the series on PBMC worked out at 0.33 µM.

As for `Cc1ccc(C(=O)Nc2ccon2)cc1Nc1nc(N)nc(NC(C)C)c1C#N`, the concentration for half-maximal inhibition (IC50) with PBMC was found to be 18 µM.

`Cc1ccc(C(=O)Nc2ccon2)cc1Nc1nc(N)nc(NC2CCCC2)c1C#N` yielded an IC50 in the series with PBMC of 1.5 µM.

`CNc1ncnc(Nc2cc(C(=O)NOC)ccc2C)c1C#N`: the IC50 in the series on PBMC is more than 250 µM.

Turning to `CCn1nccc1NC(=O)c1ccc(C)c(Nc2ncnc(NC3CCCC3)c2C#N)c1`, in the series with PBMC, the concentration for half-maximal inhibition (IC50) was determined as 72 µM.

In the case of `CCn1nccc1NC(=O)c1ccc(C)c(Nc2nc(N)nc(NC3CCCC3)c2C#N)c1`, in the series on PBMC, 21 µM corresponded to half-maximal inhibition (IC50).

On to `Cc1ccc(C(=O)Nc2ccon2)cc1Nc1ncnc(NC(C)C)c1C#N`, for which, in the series with PBMC, the half-maximal inhibitory concentration (IC50) amounted to 8.7 µM. The bioavailability in series [1] came out at 100%. The compound also showed a half-life in series [2] of 1.7 h. Moreover, the clearance in series [3] is 28.3 mL/min/kg. Further, the Papp in series [4] came to 23.9 ×10⁻⁶ cm/s. The Metabolic rate in series [5] is 0.22 nmol/min*mg of protein; in series [6] it was 0.012 nmol/min*mg of protein. For the same compound, the Control with PHA-Ly came out at 82%.

The compound `CONC(=O)c1ccc(C)c(Nc2ncnc(NC3CCCC3)c2C#N)c1` came in with an IC50 in the series on PBMC of 4.1 µM. In addition, the inhibition constant Ki on MAP kinase p38 came to 0.00042 µM.

On to `CONC(=O)c1ccc(C)c(Nc2nc(N)nc(N(C)CC(C)(C)C)c2C#N)c1`, for which the half-inhibitory concentration (IC50) in the series on PBMC came to 17 µM.

Regarding `CCn1nccc1NC(=O)c1ccc(C)c(Nc2nc(N)nc(NC(C)C)c2C#N)c1`, the IC50 in the series with PBMC was 67 µM.

Compound `CONC(=O)c1ccc(C)c(Nc2ncnc(NC(C)C)c2C#N)c1` displayed an IC50 in the series with PBMC of 4.6 µM.

`CCCNc1ncnc(Nc2cc(C(=O)NOC)ccc2C)c1C#N` came in with an IC50 with PBMC of 158 µM.

Turning to `Cc1ccc(C(=O)Nc2ccon2)cc1Nc1ncnc(NC2CCCC2)c1C#N`, the IC50 is 3.5 µM with PBMC; more than 50 µM in series [7]; more than 5 µM in series [8]; more than 50 µM in series [9]; more than 10 µM in [10]; more than 50 µM in series [11]. The IC50 in series [12] is more than 30 µM; in series [13] it was more than 50 µM; in [14], more than 25 µM; in [15], less than 0.1 µM; in series [16], more than 50 µM; in series [17] it was more than 50 µM. Also, the IC50 in series [18] was more than 50 µM; in series [19], more than 100 µM; in [20], more than 50 µM; in [21] it was 0.0041 µM; in [22], more than 30 µM; in [23], more than 30 µM. Also, the IC50 in series [24] was more than 50 µM; in [25], more than 50 µM; in series [26], more than 50 µM; at Protein kinase C (PKC), more than 50 µM; in series [27] it was more than 30 µM; in [28] it was more than 50 µM.

What is called IC50 is the concentration needed to halve the response being measured. The term bioavailability denotes dose-corrected exposure relative to a reference, in per cent. Broadly, the half-life is the time in which the quantity being followed falls by half. The term clearance denotes the volume of plasma or blood freed of the substance per unit of time. A low value points to inefficient removal. As a reminder, the Ki is the dissociation constant of the complex between target and ligand, obtained from inhibition or displacement. Read a high Ki as weaker binding.
